In patent publication US12655142B2 (Merck Patent GmbH, priority 2019, dated 2026):
Where a name gives a salt, the structure may show the parent alone. Read-outs that look alike come from different tables or passages of the source.

Tests used:
[1] = Determination of Efflux-Ratio (ER) in Caco-2 cells; conditions: human, Caco-2, pH 7.4
[2] = target: T1, GIST430/654 cell line expressing mutated constitutively active cKIT receptor tyrosine kinase (Δ560-576 deletion and V654A point mutation) (Homo sapiens, UniProt P10721, DEL560-576/V654A); assay: Cellular cKIT autophosphorylation (phospho-Y307-cKIT, Luminex bead assay) in GIST430/654 cells; format: cell-based; conditions: compounds 45 min, read-out: GIST 430/654 IC50
T1 construct: endogenous in cells; host or cells: GIST430/654 cells
Summary of the method: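 Phospho-Y307 cKIT in lysates was measured on a Luminex bead assay, with total-cKIT capture overnight at 4 °C and phosphospecific plus PE secondary detection. Cells had 45 min exposure to a compound dilution series the day after plating: GIST430 (Δ560-576) or GIST430/654 (Δ560-576/V654A, grown with 100 nM imatinib). IC50 values are relative to 0.3% DMSO-treated cells.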

[3] = target: T2, GIST430 cell line expressing constitutive active cKIT receptor tyrosine kinase (Δ560-576 deletion) (Homo sapiens, UniProt P10721, DEL560-576); assay: Cellular cKIT autophosphorylation (phospho-Y307-cKIT, Luminex bead assay) in GIST430 cells; format: cell-based
T2 construct: endogenous in cells; host or cells: GIST430 cells
Procedure: Assay Principle for Cellular Testing of cKIT Mutant Inhibitors
The GIST430 cell line expressing constitutive active cKIT receptor tyrosine kinase (Δ560-576 deletion) and the Imatinib resistant GIST430/654 cell line expressing mutated constitutively active cKIT receptor tyrosine kinase (Δ560-576 deletion and V654A point mutation) were employed for assessing cellular potency of compounds. Cellular activity of mutant cKIT was determined by the degree of cKIT autophosphorylation at tyrosine 307 using a Luminex-based bead assay. GIST430 cells were plated with 22,000 cells per well of a 96-well plate in 100 μl medium (85% IMDM/15% FCS) and GIST430/654 cells were plated with 25,000 cells per well of a 96-well plate in 100 μl medium (85% IMDM/15% FCS supplemented with 100 nM Imatinib). At the following day compounds were added in a serial dilution for 45 min. Then, cells were lysed with 90 μl lysis buffer (20 mM Hepes pH 7.5, 200 mM NaCl, 1.5 mM MgCl2×6H2O, 0.4 mM EDTA, 1% Triton-X-100, 1% Phosphatase-Inhibitor II, 20 mM β-Glycerolphosphat, 0.1% Protease-Inhibitor Cocktail III, 0.01% Benzonase) and lysates were cleared by centrifugation through a 96-well filter plate (0.65 μm). Samples were incubated with Luminex-beads which were coupled with an anti-total cKIT antibody overnight at 4° C. under gentle agitation. For detection of phospho-Y307-cKIT a phosphospecific antibody and a species-specific PE-labeled secondary antibody were added. The amount of phospho-Y307-cKIT was determined in a Luminex 200 instrument measuring 100 events per well within 60 seconds.
Counts from samples treated with compounds were calculated as percent of control from solvent treated (0.3% DMSO) samples. Dose-response curves were fitted and IC50 values were determined using Genedata Screener software.

[4] = target: T3, c-Kit(V654A) (Homo sapiens, UniProt P10721, V654A); assay: c-Kit(V654A) assay (33P-ATP filter binding kinase assay); format: biochemical; conditions: recombinant human c-Kit aa 544-end V654A, ATP 200 μM
T3 construct: recombinant human c-Kit, amino acids 544-end containing the V654A mutation; GST (N)
Summary of the method: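 Radiometric filter-binding read-out: substrate 33P incorporation counted by scintillation after P30 filtermat washes in 75 mM phosphoric acid and methanol. Enzyme: N-GST recombinant human c-Kit aa 544-end carrying V654A.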

[5] = cKIT autophosphorylation, GIST430 cells, compounds 45 min, read-out: GIST 430 IC50

T1 sequence (P10721 with tags, fused parts or gaps DEL560-576/V654A): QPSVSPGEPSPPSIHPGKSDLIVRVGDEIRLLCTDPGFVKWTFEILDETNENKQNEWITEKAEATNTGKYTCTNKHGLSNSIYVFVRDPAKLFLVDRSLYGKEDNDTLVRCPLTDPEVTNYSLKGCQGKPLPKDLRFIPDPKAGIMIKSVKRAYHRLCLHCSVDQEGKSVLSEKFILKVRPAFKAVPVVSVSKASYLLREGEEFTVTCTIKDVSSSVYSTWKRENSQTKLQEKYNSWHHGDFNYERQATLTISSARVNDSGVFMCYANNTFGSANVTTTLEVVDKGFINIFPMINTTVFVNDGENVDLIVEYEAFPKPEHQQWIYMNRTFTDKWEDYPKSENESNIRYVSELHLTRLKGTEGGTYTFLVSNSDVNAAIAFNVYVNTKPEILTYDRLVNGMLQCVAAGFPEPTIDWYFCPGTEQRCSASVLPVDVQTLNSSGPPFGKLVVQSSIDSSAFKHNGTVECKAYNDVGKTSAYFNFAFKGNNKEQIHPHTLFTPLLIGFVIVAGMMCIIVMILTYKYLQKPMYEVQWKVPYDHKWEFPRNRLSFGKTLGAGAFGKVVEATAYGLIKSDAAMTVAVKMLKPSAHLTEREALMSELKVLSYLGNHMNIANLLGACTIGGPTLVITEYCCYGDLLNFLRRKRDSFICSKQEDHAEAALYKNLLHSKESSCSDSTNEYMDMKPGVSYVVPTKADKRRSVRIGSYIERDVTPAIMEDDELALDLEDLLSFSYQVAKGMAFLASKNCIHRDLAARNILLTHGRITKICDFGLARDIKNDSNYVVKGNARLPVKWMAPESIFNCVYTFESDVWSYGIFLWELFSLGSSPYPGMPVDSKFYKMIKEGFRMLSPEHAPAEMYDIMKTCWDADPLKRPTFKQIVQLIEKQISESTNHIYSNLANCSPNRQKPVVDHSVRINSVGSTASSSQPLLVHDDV
T3 sequence (P10721 544-976 V654A): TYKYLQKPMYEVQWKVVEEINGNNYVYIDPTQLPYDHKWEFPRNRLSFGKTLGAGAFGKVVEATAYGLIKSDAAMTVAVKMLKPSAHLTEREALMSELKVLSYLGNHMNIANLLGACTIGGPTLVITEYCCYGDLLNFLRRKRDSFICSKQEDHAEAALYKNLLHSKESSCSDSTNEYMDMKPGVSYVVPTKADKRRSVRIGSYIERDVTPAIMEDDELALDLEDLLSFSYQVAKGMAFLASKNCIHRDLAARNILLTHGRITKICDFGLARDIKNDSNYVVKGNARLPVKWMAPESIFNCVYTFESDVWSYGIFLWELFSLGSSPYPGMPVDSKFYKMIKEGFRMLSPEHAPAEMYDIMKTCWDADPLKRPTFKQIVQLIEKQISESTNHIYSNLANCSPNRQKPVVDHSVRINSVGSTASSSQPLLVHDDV
T2 sequence (P10721 with tags, fused parts or gaps DEL560-576): as the sequence (P10721 with tags, fused parts or gaps DEL560-576/V654A) above, with A612V counted along it

efflux ratio at 2 h, 1 μM [1] | IC50 [2] [nM] | IC50 [3, 5] [M] | IC50 [4] [nM] | IC50 ([3]; cell line not specified (GIST), read-out: IC50 [M] GIST) [M] | SMILES
< 15 | 55 | 3.2e-09 | 8.6 | – | COc1ccn2c(-c3cc(NCc4ccc(-c5cnn(C)c5)cc4)ncn3)cnc2c1 [A1, 6-{7-methoxyimidazo[1,2-a]pyridin-3-yl}-N-{[4-(1-methyl-1H-pyrazol-4-yl)phenyl]methyl}pyrimidin-4-amine]
< 15 | 160 | 7.7e-09 | 4.6 | – | COCCOc1ccn2c(-c3cc(NCc4ccc(-c5ccccc5)cc4)ncn3)cnc2c1 [A2, N-({[1,1′-biphenyl]-4-yl}methyl)-6-[7-(2-methoxyethoxy)imidazo[1,2-a]pyridin-3-yl]pyrimidin-4-amine]
< 15 | 48 | 4.8e-09 | 7.3 | – | COCCOc1ccn2c(-c3cc(NCc4ccc(-c5cnn(C)c5)cc4)ncn3)cnc2c1 [A4, 6-[7-(2-methoxyethoxy)imidazo[1,2-a]pyridin-3-yl]-N-{[4-(1-methyl-1H-pyrazol-4-yl)phenyl]methyl}pyrimidin-4-amine]
– | 170 | 5.3e-09 | 8.2 | – | COCCOc1ccn2c(-c3cc(NCc4ccc(-c5cccnc5)cc4)ncn3)cnc2c1 [A5, 6-[7-(2-methoxyethoxy)imidazo[1,2-a]23yridine-3-yl]-N-{[4-(23yridine-3-yl)phenyl]methyl}pyrimidin-4-amine]
– | 350 | 2e-08 | 6.4 | – | COc1ccn2c(-c3cc(NCc4ccc(-c5cccnc5)cc4)ncn3)cnc2c1 [A6, 6-{7-methoxyimidazo[1,2-a]23yridine-3-yl}-N-{[4-(23yridine-3-yl)phenyl]methyl}pyrimidin-4-amine]
– | 300 | 6.1e-09 | 4.7 | – | COCCOc1ccn2c(-c3cc(NCc4ccc(-c5ccn(C)n5)cc4)ncn3)cnc2c1 [A7, 6-[7-(2-methoxyethoxy)imidazo[1,2-a]pyridin-3-yl]-N-{[4-(1-methyl-1H-pyrazol-3-yl)phenyl]methyl}pyrimidin-4-amine]
– | 190 | 2.4e-09 | 2.2 | – | c1ccn2c(-c3cc(NCc4ccc(-n5cccn5)cc4)ncn3)cnc2c1 [A9, (6-Imidazo[1,2-a]23yridine-3-yl-pyrimidin-4-yl)-(4-pyrazol-1-yl-benzyl)-amine]
– | 170 | 7e-09 | 15 | – | COCCOc1ccn2c(-c3cc(NCc4ccc(-c5cnn(C)c5)nc4)ncn3)cnc2c1 [A11, 6-[7-(2-methoxyethoxy)imidazo[1,2-a]pyridin-3-yl]-N-{[6-(1-methyl-1H-pyrazol-4-yl)pyridin-3-yl]methyl}pyrimidin-4-amine]
< 15 | 130 | 4.2e-09 | 6.3 | – | COCCOc1ccn2c(-c3cc(NCc4ccc(-n5ccnn5)cc4)ncn3)cnc2c1 [A16, 6-[7-(2-methoxyethoxy)imidazo[1,2-a]pyridin-3-yl]-N-{[4-(1H-1,2,3-triazol-1-yl)phenyl]methyl}pyrimidin-4-amine]
< 15 | 200 | 7.2e-09 | 13 | – | COc1ccn2c(-c3cc(NCc4ccc(-n5ccnn5)cc4)ncn3)cnc2c1 [A18, 6-{7-methoxyimidazo[1,2-a]pyridin-3-yl}-N-{[4-(1H-1,2,3-triazol-1-yl)phenyl]methyl}pyrimidin-4-amine]
– | – | – | 5.8 | 2.1e-09 | Cn1cc(-c2ccc(CNc3cc(-c4cnc5cc(OCCCN6CCCC6)ccn45)ncn3)cc2)cn1 [A75 hydrochloride, [4-(1-methyl-1H-pyrazol-4-yl)-benzyl]-{6-[7-(3-pyrrolidin-1-yl-propoxy)-imidazo[1,2-a]pyridin-3-yl]-pyrimidin-4-yl}-amine hydrochloride]
– | 230 | 8.8e-09 | 6.6 | – | COc1ccn2c(-c3ncnc(NCc4ccc(-c5cnn(C)c5)cc4)c3F)cnc2c1 [A97, 5-fluoro-6-{7-methoxyimidazo[1,2-a]pyridin-3-yl}-N-{[4-(1-methyl-1H-pyrazol-4-yl)phenyl]methyl}pyrimidin-4-amine]
– | 30000 | 5.1e-08 | 92 | – | Cc1cc(N2CC[C@H](F)C2)ncc1CNc1cc(-c2cnc3ccccn23)ncn1 [A155, [6-((S)-3-fluoro-pyrrolidin-1-yl)-4-methyl-pyridin-3-ylmethyl]-(6-imidazo[1,2-a]pyridin-3-yl-pyrimidin-4-yl)-amine]
> 50 | 84 | – | 13 | – | Cn1cc(-c2ccc(CNc3cc(-c4cnc5cc(N6CCC(O)C6)ccn45)ncn3)cc2)cn1 (stereo not shown) [A245, 1-(3-{6-[4-(1-methyl-1H-pyrazol-4-yl)-benzylamino]-pyrimidin-4-yl}-imidazo[1,2-a]pyridin-7-yl)-pyrrolidin-3-ol]
< 15 | 38 | – | 8 | – | Cn1cc(-c2ccc(CNc3cc(-c4cnc5cc(N6CC7(COC7)C6)ccn45)ncn3)cc2)cn1 [A246, [4-(1-methyl-1H-pyrazol-4-yl)-benzyl]-{6-[7-(2-oxa-6-aza-spiro[3.3]hept-6-yl)-imidazo[1,2-a]pyridin-3-yl]-pyrimidin-4-yl}-amine]
< 15 | 62 | – | 7.8 | – | Cn1cc(-c2ccc(CNc3cc(-c4cnc5cc(N6CCC7(COC7)C6)ccn45)ncn3)cc2)cn1 [A247, [4-(1-methyl-1H-pyrazol-4-yl)-benzyl]-{6-[7-(2-oxa-6-aza-spiro[3.4]oct-6-yl)-imidazo[1,2-a]pyridin-3-yl]-pyrimidin-4-yl}-amine]
> 50 | 160 | – | 21 | – | CN1CC2(CN(CCOc3ccn4c(-c5cc(NCc6ccc(-c7cnn(C)c7)cc6)ncn5)cnc4c3)C2)OC1=O [A248, 7-methyl-2-[2-(3-{6-[4-(1-methyl-1H-pyrazol-4-yl)-benzylamino]-pyrimidin-4-yl}-imidazo[1,2-a]pyridin-7-yloxy)-ethyl]-5-oxa-2,7-diaza-spiro[3.4]octan-6-one]
> 50 | 440 | – | 87 | – | CC(Nc1cc(-c2cnc3cc(OCCCN4CCC4)ccn23)ncn1)c1ccc(-c2cnn(C)c2)cc1 (stereo not shown) [A249, {6-[7-(3-azetidin-1-yl-propoxy)-imidazo[1,2-a]pyridin-3-yl]-pyrimidin-4-yl}-{1-[4-(1-methyl-1H-pyrazol-4-yl)-phenyl]-ethyl}-amine]
> 50 | 410 | – | 110 | – | CC(Nc1cc(-c2cnc3cc(OCCCN4CCCC4)ccn23)ncn1)c1ccc(-c2cnn(C)c2)cc1 (stereo not shown) [A250, {1-[4-(1-methyl-1H-pyrazol-4-yl)-phenyl]-ethyl}-{6-[7-(3-pyrrolidin-1-yl-propoxy)-imidazo[1,2-a]pyridin-3-yl]-pyrimidin-4-yl}-amine]
< 15 | 44 | – | 2 | – | OCCOc1ccn2c(-c3cc(NCc4ccc(-c5cocn5)cc4)ncn3)cnc2c1 [A251, 2-{3-[6-(4-oxazol-4-yl-benzylamino)-pyrimidin-4-yl]-imidazo[1,2-a]pyridin-7-yloxy}-ethanol]
< 15 | 100 | – | 15 | – | Cn1cc(-c2ccc(CNc3cc(-c4cnc5cc(OCCn6cccn6)ccn45)ncn3)cc2)cn1 [A255, N-{[4-(1-methyl-1H-pyrazol-4-yl)phenyl]methyl}-6-{7-[2-(1H-pyrazol-1-yl)ethoxy]imidazo[1,2-a]pyridin-3-yl}pyrimidin-4-amine]
< 15 | 130 | – | 16 | – | Cn1cc(-c2ccc(CNc3cc(-c4cnc5cc(OCCCn6cccn6)ccn45)ncn3)cc2)cn1 [A257, N-{[4-(1-methyl-1H-pyrazol-4-yl)phenyl]methyl}-6-{7-[3-(1H-pyrazol-1-yl)propoxy]imidazo[1,2-a]pyridin-3-yl}pyrimidin-4-amine]
